In patent US11142533B2, “Macrocycles for use in treating disease” (TURNING POINT THERAPEUTICS, INC., priority 2019, dated 2021):
In brackets after ≈: the same amount, converted by molar mass.

Legend:
[1] = Mouse pharmacokinetic study; format: in vivo; details: single oral dose (dose level not given), plasma
Description: To prepare 1 L of the vehicle solution (0.5% CMC and 1.0% Tween 80), 10 g of Tween 80 was mixed with 985 mL of water into a 1 L bottle. The mixture was stirred until Tween 80 was completely dissolved. With continued stirring, 5 g of CMC was very slowly sprinkled into the solution. Stirring was continued until all CMC was dissolved, which might take several hr. The resulting vehicle solution was stored at 4° C.
The compound was suspended in the vehicle solution and the mice were orally administrated with a single dose of the compound at the selected dose level. The blood samples were collected according to the defined time table into tubes containing K2-EDTA, followed by gentle mixing to assure distribution of the anti-coagulant. Immediately after the blood sample was collected and mixed, it was placed on ice. The samples were then centrifuged at 4° C. for 10 minutes at 5,000 RPM. The plasma was harvested into pre-labeled tubes and stored at −80° C. until analyzed by LC-MS/MS.

KG-1 cell (OP2-FGFR1) = KG-1 cell (OP2-FGFR1) (Homo sapiens, UniProt P11362); assay: Cell proliferation assay (CellTiter-Glo)
[2] = Solubility test in phosphate buffer; format: physicochemical; details: aqueous buffer, thermodynamic from solid; phosphate buffer pH 7.4, room temperature
Description: Aliquot of 1.035 mL phosphate buffer (PB) (pH 7.4) was added into 2.07 mg of the test compound (for a 2 mg·mL^−1 upper limiting solubility determination) in a 1.5 mL tubes. The mixture was ultrasonicly treated for 10 min and rotated on rotator at room temperature for more than 8 hr. After rotation, the tube was ultrasonicly treated for 10 min and centrifuged at 13000 rpm for 15 min. 0.3 mL of the supernatant was transferred into a 0.6 mL tube and discarded after rotated for 5 min for rinsing, then about 0.6 mL of the residual supernatant was transferred into the rinsed tube and centrifuged again at 13000 rpm for 15 min. The supernatant after every centrifugation was appropriately diluted and transferred for LC-MS/MS analysis where a standard curve was constructed with 7 concentration levels (2, 4, 10, 20, 40, 100 and 200 μg mL^−1) and used for the quantitation of the analyte in PB.

[3] = Liver microsomal stability; format: in vitro ADME; details: pH 7.4, 1 μM compound, 0.5 mg/mL liver microsome protein
Description: The test compound stock solution was prepared by weighing 1.07 mg and dissolving in 0.261 mL of DMSO to achieve the concentration of 10 mM. Working solution of the test compound was prepared by diluting stock solution using DMSO to yield the concentration of 300 μM.
The assay was carried out in 96-well microtiter plates. In each well, the reaction mixture (25 μL) contained the test compound at the final concentration of 1 μM, 0.5 mg/mL liver microsome protein, and 1 mM NADPH in 100 mM potassium phosphate, pH 7.4 buffer with 3.3 mM MgCl2. The mixtures were incubated in duplicate at 37° C. for 0, 15, 30 or 60 minutes, and 150 μL of quench solution (acetonitrile with 0.1% formic acid) with internal standard (bucetin for positive ESI mode) was added into each well of reaction to terminate the reaction. The plates were then sealed and centrifuged at 4° C. for 15 minutes at 4000 rpm. The resulting supernatant was transferred to fresh plates for LC-MS/MS analysis of the test compounds. Verapamil was used as the positive control to validate the assay system.
All samples were analyzed with LC-MS/MS using an AB Sciex API 4000 instrument, coupled to a Shimadzu LC-20AD LC Pump system. Analytical samples were separated using a Waters Atlantis T3 dC18 reverse phase HPLC column (20 mm×2.1 mm) at a flow rate of 0.5 mL/min. The mobile phase consisted of 0.1% formic acid in water (solvent A) and 0.1% formic acid in acetonitrile (solvent B).
The extent of metabolism was calculated based on the disappearance of the test compound, compared to its initial concentration. The initial rates of clearance of test compounds were calculated using linear regression plot of semi-log % remaining of compounds versus time. The elimination rate constant (equals to negative slope) of the linear regression plot was then used to determine t112 and the intrinsic clearance (CLInt) using the following formula: k=−slope t1/2=0.693/k CLint=k/Cprotein
Where Cprotein (mg/mL) is the microsomal protein concentration in the incubation system.

KM12 (TPM3-TRKA) = KM12 (TPM3-TRKA) (Homo sapiens, UniProt P04629); assay: Cell proliferation assay (CellTiter-Glo)
[4] = female, mouse, liver microsomes

Sequence of KM12 (TPM3-TRKA) (P04629 with tags, fused parts or gaps): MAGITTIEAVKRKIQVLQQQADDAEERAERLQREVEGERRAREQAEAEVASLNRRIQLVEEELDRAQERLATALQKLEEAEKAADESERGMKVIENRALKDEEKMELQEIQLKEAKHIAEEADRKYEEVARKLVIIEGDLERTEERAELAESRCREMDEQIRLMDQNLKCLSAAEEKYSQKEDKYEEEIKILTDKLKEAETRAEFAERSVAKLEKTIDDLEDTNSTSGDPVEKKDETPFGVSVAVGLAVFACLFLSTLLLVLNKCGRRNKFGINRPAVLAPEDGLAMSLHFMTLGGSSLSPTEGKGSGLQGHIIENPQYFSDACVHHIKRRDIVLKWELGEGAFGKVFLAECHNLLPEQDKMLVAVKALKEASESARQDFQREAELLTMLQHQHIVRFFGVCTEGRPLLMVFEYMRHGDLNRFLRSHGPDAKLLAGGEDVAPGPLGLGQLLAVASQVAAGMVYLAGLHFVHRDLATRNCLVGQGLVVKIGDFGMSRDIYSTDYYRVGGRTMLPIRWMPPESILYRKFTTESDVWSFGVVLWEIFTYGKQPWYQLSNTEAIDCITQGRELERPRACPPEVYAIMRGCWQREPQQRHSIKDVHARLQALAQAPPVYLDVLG
Sequence of KG-1 cell (OP2-FGFR1) (P11362 456-822 limits assumed): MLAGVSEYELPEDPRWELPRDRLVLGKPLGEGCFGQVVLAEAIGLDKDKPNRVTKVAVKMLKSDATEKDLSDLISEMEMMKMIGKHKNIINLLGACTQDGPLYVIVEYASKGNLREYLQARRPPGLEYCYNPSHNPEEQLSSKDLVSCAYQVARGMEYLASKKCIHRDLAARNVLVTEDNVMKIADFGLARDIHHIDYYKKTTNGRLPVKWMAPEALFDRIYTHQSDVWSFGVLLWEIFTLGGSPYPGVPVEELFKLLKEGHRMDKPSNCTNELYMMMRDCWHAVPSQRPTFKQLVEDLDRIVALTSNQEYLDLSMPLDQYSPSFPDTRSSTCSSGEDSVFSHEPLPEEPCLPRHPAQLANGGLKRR

SMILES | AUC [1] [ng·h/mL] | Cmax [1] [ng/mL] | Tmax [1] [min] | IC50 (KG-1 cell (OP2-FGFR1)) [nM] | solubility [2] [µg/mL] | microsomal CLint at 1 µM [3, 4] [µL/min/mg] | microsomal CLint at 1 µM ([3]; female, rat, liver microsomes) [µL/min/mg] | microsomal CLint at 1 µM ([3]; human, pooled liver microsomes) [µL/min/mg] | IC50 (KM12 (TPM3-TRKA)) [nM]
C[C@@H]1COc2cn3ncc4c3nc2N1Cc1cc(F)cnc1OCC(C)(C)NC4=O [Comp. Ex. 2, reference compound] | 18700 | 2900 | 30 | 0.65 | 4.9 (≈ 11.9 µM) | 21 | 5.9 | 3.9 | 0.2
C[C@@H]1CCOc2ccc(F)cc2CN2c3nc4c(cnn4cc3OC[C@H]2C(F)F)C(=O)N1 [Compound 5, (6R,16S)-16-(Difluoromethyl)-12-fluoro-6-methyl-5,6,7,8,16,17-hexahydro-4H,14H-1,19-(metheno)[1,4]oxazino[3,4-j]pyrazolo[4,3-g][1,5,9,11]benzoxatriazacyclotetradecin-4-one] |  |  |  | 514 |  |  |  |  | < 0.2
O=C1NCCCOc2ccc(F)cc2CN2c3nc4c1cnn4cc3OC[C@H]2C(F)F [Compound 3, (16S)-16-(Difluoromethyl)-12-fluoro-5,6,7,8,16,17-hexahydro-4H,14H-1,19-(metheno)[1,4]oxazino[3,4-j]pyrazolo[4,3-g][1,5,9,11]benzoxatriazacyclotetradecin-4-one] |  |  |  | 75.3 |  |  |  |  | < 0.2
C[C@@H]1COc2ncc(F)cc2CN2c3nc4c(cnn4cc3OC[C@H]2C)C(=O)N1 [Comp. Ex. 1, reference compound] | 12300 | 4190 | 30 | 22.2 | 7.9 (≈ 19.8 µM) | 22 | 10 | 2.6 | < 0.2
CC1(C)CCOc2ccc(F)cc2CN2c3nc4c(cnn4cc3OC[C@H]2C(F)F)C(=O)N1 [Compound 8, (16S)-16-(Difluoromethyl)-12-fluoro-6,6-dimethyl-5,6,7,8,16,17-hexahydro-4H,14H-1,19-(metheno)[1,4]oxazino[3,4-j]pyrazolo[4,3-g][1,5,9,11]benzoxatriazacyclotetradecin-4-one] |  |  |  | 2100 |  |  |  |  | < 0.2
CC1(C)CNC(=O)c2cnn3cc4c(nc23)N(Cc2cc(F)ccc2OC1)[C@H](C(F)F)CO4 [Compound 7, (16S)-16-(Difluoromethyl)-12-fluoro-7,7-dimethyl-5,6,7,8,16,17-hexahydro-4H,14H-1,19-(metheno)[1,4]oxazino[3,4-j]pyrazolo[4,3-g][1,5,9,11]benzoxatriazacyclotetradecin-4-one] |  |  |  | 40.7 |  |  |  |  | < 0.2
O=C1NC2(CC2)COc2ccc(F)cc2CN2c3nc4c1cnn4cc3OC[C@H]2C(F)F [Compound 4, (4′S)-4′-(Difluoromethyl)-8′-fluoro-3′H,4′H,6′H,12′H,14′H,15′H-spiro[cyclopropane-1,13′-[18,1](metheno)[1,4]oxazino[3,4-i]pyrazolo[4,3-f][1,4,8,10]benzoxatriazacyclotridecin]-15′-one] |  |  |  | 60.9 |  |  |  |  | 
O=C1NC2(CCOc3ccc(F)cc3CN3c4nc5c1cnn5cc4OC[C@H]3C(F)F)CC2 [Compound 6, (16′S)-16′-(Difluoromethyl)-12′-fluoro-4′H,5′H,7′H,8′H,14′H,16′H,17′H-spiro[cyclopropane-1,6′-[1,19](metheno)[1,4]oxazino[3,4-j]pyrazolo[4,3-g][1,5,9,11]benzoxatriazacyclotetradecin]-4′-one] |  |  |  | 385 |  |  |  |  | < 0.2
